Measured values taken from ChEMBL document CHEMBL4043081, “Do spiroindolines have the potential to replace vesamicol as lead compound for the development of radioligands targeting the vesicular acetylcholine transporter?” (Bioorg Med Chem, 2017).
Activity calls are given as the source filed them. The calls are words filed in the database; no cut-off is given here.

Experiments:
[1] = biological target: T1, Vesicular acetylcholine transporter (Rattus norvegicus, UniProt Q62666); test: Displacement of [3H]vesamicol from rat VAChT expressed in rat PC12 cell membranes incubated for 120 mins by liquid scintillation counting
T1 sequence (Q62666 whole entry): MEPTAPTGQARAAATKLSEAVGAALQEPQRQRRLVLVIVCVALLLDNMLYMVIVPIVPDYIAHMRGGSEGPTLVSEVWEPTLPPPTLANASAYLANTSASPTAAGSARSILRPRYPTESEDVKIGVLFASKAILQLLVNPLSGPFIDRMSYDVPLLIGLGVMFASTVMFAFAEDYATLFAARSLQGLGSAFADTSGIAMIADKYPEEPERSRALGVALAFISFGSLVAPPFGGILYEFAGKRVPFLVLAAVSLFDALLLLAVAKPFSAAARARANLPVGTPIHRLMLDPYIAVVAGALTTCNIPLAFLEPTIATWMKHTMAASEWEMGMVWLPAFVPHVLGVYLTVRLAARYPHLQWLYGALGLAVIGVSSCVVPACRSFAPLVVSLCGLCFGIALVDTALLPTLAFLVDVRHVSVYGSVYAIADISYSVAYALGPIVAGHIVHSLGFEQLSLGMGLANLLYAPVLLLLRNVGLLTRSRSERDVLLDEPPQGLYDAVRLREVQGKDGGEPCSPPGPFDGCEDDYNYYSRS

[2] = biological target: Sigma non-opioid intracellular receptor 1 (Rattus norvegicus, UniProt Q9R0C9); test: Displacement of [3H]pentazocine from sigma1 receptor in Sprague-Dawley rat cortex membranes incubated for 120 mins by liquid scintillation counting; format: cell membranes
Chain of Sigma non-opioid intracellular receptor 1 (Q9R0C9 whole entry): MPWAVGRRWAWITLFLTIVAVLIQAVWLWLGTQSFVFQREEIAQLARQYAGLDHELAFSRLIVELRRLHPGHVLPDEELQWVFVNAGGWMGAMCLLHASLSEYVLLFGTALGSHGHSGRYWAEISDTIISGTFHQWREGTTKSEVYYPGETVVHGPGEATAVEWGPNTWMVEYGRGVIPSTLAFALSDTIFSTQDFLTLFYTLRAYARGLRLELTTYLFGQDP

[3] = biological target: T2, Sigma intracellular receptor 2 (Rattus norvegicus, UniProt Q5U3Y7); test: Displacement of [3H]pentazocine from sigma2 receptor in Sprague-Dawley rat liver membranes incubated for 120 mins by liquid scintillation counting; format: cell membranes, Membrane
T2 sequence (Q5U3Y7 whole entry): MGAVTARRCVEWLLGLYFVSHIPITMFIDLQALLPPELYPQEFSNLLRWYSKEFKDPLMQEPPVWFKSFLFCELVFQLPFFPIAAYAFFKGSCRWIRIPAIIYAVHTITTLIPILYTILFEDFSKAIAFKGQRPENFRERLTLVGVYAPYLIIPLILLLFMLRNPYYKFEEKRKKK

[4] = biological target: T3, Vesicular acetylcholine transporter (Rattus norvegicus) (UniProt Q62666); test: Binding affinity to rat VAChT expressed in rat PC12 cell membranes assessed as induction of rightward shift of vesamicol binding curves at 100 and 100 nM incubated for 120 mins by liquid scintillation counting based [3H]vesamicol binding assay
T3 sequence (whole entry): T1 sequence (Q62666 whole entry)

Compound | Ki [1] | Ki [2] | Ki [3] | Activity [4]
O=C(c1ccnc(F)c1)N1CC2(CCN(C/C=C/c3ccc(Cl)cc3)CC2)c2cc(F)ccc21 | 110 nM | 55.4 nM | 748 nM | 
O=C(c1ccc(F)nc1)N1CC2(CCN(C/C=C/c3ccc(Cl)cc3)CC2)c2cc(F)ccc21 | 376 nM | 282 nM | > 10000 nM | 
O=C(c1ccnc(Cl)c1)N1CC2(CCN(C/C=C/c3ccc(Cl)cc3)CC2)c2cc(F)ccc21 | 153 nM | 137 nM | 1190 nM | Active
O=C(c1ccc(Br)nc1)N1CC2(CCN(C/C=C/c3ccc(Cl)cc3)CC2)c2cc(F)ccc21 | 39.2 nM | 179 nM | 60.1 nM | 
O=C(OCCF)N1CC2(CCN(C/C=C/c3ccc(Cl)cc3)CC2)c2cc(F)ccc21 | 328 nM | 44.1 nM | 1520 nM | 
O=C(c1ccc(F)cc1)N1CC2(CCN(C/C=C/c3ccc(Cl)cc3)CC2)c2cc(F)ccc21 | 243 nM | 293 nM | 1200 nM | 
